From patent publication US10457691B2, “Macrocyclic kinase inhibitors and uses thereof” (Dana-Farber Cancer Institute, Inc., priority 2014, dated 2019)

Tests used:
Format in all cases: biochemical
DYRK2 = DYRK2 (Homo sapiens, UniProt Q92630); experiment: Protein kinase assay ([γ-32P] ATP), DYRK2; conditions: read-out: Activity of the protein kinase when treated with compound I-1 (% control)
Method: (§1) In another set of experiments, the activities of the compounds described herein against various protein kinases were determined according to the methods reported in Hastie et al., Nature Protocols, 2006, 1, 968-971.
(§2) Enzyme dilution buffer. This buffer consisted of 50 mM Tris-HCl, pH 7.5, 0.1 mM EGTA, 1 mg ml^−1 bovine serum albumin and 0.1% (vol/vol) 2-mercaptoethanol.
(§3) 10× concentrated assay buffer. An assay buffer of 500 mM Tris-HCl, pH 7.5, 1 mM EGTA, and 100 mM magnesium acetate was used for assay of a wide variety of protein kinases. In some experiments, other cofactors were included (e.g., calcium ions and calmodulin were included for assay of calcium-calmodulindependent protein kinases).
(§4) 1 mM [γ-^32P] ATP. The specific activity of the [γ-^32P] ATP solution was 1×10^5 to 1×10^6 c.p.m. per nmol depending on what was needed to produce an optimal signal/noise ratio. […] To measure the concentration of ATP, a sample of such a stock solution was diluted to 20 μM, and the absorbance of the diluted sample was measured at 259 nm. The absorbance of a 20-μM stock solution of ATP at 259 nm was about 0.31. […] ATP to produce a radioactivity of 1×10^5 to 1×10^6 c.p.m. per nmol. […]
(§5) 13) Measure radioactivity in the samples by Cerenkov counting (e.g., without liquid scintillation fluid) in a liquid scintillation counter using a “^32P program”. […]

TIE2 = TIE2 (Homo sapiens, UniProt Q02763); experiment: Protein kinase assay ([γ-32P] ATP), TIE2; conditions: read-out: Activity of the protein kinase when treated with compound I-1 (% control)
TIE2, sequence (Q02763 23-1124, species assumed): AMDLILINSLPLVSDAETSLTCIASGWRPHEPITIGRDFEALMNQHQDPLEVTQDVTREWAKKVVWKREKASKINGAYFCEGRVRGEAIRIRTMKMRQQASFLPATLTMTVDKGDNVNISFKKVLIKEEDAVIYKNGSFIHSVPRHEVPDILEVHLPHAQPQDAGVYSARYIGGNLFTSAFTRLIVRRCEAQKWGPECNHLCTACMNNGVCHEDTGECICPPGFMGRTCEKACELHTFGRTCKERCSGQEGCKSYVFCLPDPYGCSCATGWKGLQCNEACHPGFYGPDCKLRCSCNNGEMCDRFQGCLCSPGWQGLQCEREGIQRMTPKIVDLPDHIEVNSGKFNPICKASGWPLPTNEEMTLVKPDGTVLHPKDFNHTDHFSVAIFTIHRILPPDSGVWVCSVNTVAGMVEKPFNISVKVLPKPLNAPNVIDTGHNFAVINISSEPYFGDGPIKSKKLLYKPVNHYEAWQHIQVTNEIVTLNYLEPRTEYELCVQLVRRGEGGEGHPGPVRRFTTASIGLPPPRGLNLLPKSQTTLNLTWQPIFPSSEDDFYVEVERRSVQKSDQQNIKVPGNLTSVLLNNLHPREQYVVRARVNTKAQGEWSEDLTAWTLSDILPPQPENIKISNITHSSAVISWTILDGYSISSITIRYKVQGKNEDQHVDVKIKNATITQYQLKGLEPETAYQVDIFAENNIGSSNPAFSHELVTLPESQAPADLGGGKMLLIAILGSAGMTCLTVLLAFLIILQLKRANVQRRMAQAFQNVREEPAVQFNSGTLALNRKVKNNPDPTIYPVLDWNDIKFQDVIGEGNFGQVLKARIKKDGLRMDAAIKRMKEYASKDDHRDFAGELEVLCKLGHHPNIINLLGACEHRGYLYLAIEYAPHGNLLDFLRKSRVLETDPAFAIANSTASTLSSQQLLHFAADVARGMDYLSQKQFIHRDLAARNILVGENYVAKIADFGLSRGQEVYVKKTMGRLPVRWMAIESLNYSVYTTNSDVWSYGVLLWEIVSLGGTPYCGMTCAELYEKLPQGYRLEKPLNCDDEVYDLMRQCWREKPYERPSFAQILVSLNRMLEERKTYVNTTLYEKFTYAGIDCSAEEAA
Method: as §1, §2, §3, §4, §5

EIF2AK3 = EIF2AK3 (Homo sapiens, UniProt Q9NZJ5); experiment: Protein kinase assay ([γ-32P] ATP), EIF2AK3; conditions: read-out: Activity of the protein kinase when treated with compound I-1 (% control)
Method: as §1, §2, §3, §4, §5

CDK9-Cyclin T1 = CDK9-Cyclin T1 (Homo sapiens, UniProt P50750); experiment: Protein kinase assay ([γ-32P] ATP), CDK9-Cyclin T1; conditions: read-out: Activity of the protein kinase when treated with compound I-1 (% control)
Method: as §1, §2, §3, §4, §5

PHK = experiment: Protein kinase assay ([γ-32P] ATP), PHK
Method: as §1, §2, §3, §4, §5

TESK1 = TESK1 (Homo sapiens, UniProt Q15569); experiment: Protein kinase assay ([γ-32P] ATP), TESK1; conditions: read-out: Activity of the protein kinase when treated with compound I-1 (% control)
TESK1, sequence (Q15569 whole entry, species assumed): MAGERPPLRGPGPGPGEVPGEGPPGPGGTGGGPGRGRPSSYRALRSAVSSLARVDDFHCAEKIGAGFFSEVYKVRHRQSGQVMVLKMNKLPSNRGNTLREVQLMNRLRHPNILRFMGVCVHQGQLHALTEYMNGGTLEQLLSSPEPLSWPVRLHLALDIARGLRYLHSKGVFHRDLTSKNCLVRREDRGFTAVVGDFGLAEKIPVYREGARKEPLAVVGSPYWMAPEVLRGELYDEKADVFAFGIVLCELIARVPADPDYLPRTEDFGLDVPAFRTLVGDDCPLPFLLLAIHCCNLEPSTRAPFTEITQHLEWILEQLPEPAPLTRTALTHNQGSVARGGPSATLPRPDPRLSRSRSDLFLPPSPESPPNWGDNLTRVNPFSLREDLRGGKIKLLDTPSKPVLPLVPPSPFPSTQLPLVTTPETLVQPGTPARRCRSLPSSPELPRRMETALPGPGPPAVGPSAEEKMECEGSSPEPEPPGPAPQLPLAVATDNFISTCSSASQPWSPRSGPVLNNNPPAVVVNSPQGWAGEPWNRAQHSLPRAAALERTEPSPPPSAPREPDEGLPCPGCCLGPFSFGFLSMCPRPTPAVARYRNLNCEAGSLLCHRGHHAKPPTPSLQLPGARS
Method: as §1, §2, §3, §4, §5

p38b MAPK = p38b MAPK (Homo sapiens, UniProt Q15759); experiment: Protein kinase assay ([γ-32P] ATP), p38b MAPK; conditions: read-out: Activity of the protein kinase when treated with compound I-1 (% control)
Method: as §1, §2, §3, §4, §5

PIM1 = PIM1 (Homo sapiens, UniProt P11309); experiment: Protein kinase assay ([γ-32P] ATP), PIM1; conditions: read-out: Activity of the protein kinase when treated with compound I-1 (% control)
PIM1, sequence (P11309 whole entry): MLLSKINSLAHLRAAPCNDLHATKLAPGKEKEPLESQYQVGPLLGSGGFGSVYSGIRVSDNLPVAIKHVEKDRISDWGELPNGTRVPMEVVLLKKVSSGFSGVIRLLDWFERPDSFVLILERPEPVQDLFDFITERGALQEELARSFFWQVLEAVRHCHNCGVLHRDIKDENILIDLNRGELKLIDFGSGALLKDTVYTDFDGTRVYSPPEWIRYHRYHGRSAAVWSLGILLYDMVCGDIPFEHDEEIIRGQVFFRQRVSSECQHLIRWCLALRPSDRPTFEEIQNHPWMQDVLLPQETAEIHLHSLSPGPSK
Method: as §1, §2, §3, §4, §5

PAK4 = PAK4 (Homo sapiens, UniProt O96013); experiment: Protein kinase assay ([γ-32P] ATP), PAK4; conditions: read-out: Activity of the protein kinase when treated with compound I-1 (% control)
Method: as §1, §2, §3, §4, §5

ROCK 2 = experiment: Protein kinase assay ([γ-32P] ATP), ROCK 2
Method: as §1, §2, §3, §4, §5

RSK1 = RSK1 (Homo sapiens, UniProt Q15418); experiment: Protein kinase assay ([γ-32P] ATP), RSK1; conditions: read-out: Activity of the protein kinase when treated with compound I-1 (% control)
Method: as §1, §2, §3, §4, §5

MST2 = MST2 (Homo sapiens, UniProt Q13188); experiment: Protein kinase assay ([γ-32P] ATP), MST2; conditions: read-out: Activity of the protein kinase when treated with compound I-1 (% control)
Method: as §1, §2, §3, §4, §5

PAK6 = PAK6 (Homo sapiens, UniProt Q9NQU5); experiment: Protein kinase assay ([γ-32P] ATP), PAK6; conditions: read-out: Activity of the protein kinase when treated with compound I-1 (% control)
Method: as §1, §2, §3, §4, §5

SGK1 = SGK1 (Homo sapiens, UniProt O00141); experiment: Protein kinase assay ([γ-32P] ATP), SGK1; conditions: read-out: Activity of the protein kinase when treated with compound I-1 (% control)
SGK1, sequence (O00141 whole entry, species assumed): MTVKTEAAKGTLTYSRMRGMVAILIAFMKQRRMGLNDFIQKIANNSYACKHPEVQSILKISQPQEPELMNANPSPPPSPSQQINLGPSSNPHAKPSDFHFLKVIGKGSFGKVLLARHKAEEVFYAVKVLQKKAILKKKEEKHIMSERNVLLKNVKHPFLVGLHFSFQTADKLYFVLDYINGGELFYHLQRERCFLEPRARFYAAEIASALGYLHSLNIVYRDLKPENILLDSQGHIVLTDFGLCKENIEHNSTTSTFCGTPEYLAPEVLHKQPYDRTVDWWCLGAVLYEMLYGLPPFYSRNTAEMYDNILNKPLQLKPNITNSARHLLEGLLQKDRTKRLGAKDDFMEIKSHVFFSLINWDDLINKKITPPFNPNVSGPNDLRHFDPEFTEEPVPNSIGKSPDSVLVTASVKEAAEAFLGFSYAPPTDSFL
Method: as §1, §2, §3, §4, §5

ABL = ABL (Homo sapiens, UniProt P00519); experiment: Protein kinase assay ([γ-32P] ATP), ABL; conditions: read-out: Activity of the protein kinase when treated with compound I-1 (% control)
Method: as §1, §2, §3, §4, §5

BRK = BRK (Homo sapiens, UniProt Q13882); experiment: Protein kinase assay ([γ-32P] ATP), BRK; conditions: read-out: Activity of the protein kinase when treated with compound I-1 (% control)
BRK, sequence (Q13882 whole entry): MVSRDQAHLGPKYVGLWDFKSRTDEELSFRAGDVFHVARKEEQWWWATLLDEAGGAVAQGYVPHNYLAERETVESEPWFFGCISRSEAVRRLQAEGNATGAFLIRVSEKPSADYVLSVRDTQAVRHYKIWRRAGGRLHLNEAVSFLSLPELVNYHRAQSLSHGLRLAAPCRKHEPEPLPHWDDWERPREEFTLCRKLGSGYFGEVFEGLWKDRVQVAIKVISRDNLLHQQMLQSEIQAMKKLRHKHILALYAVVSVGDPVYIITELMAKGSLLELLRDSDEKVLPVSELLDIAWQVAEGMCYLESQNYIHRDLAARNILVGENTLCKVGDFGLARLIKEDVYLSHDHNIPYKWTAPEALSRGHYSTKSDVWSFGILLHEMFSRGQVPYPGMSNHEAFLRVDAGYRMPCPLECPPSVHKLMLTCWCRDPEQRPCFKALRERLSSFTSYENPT
Method: as §1, §2, §3, §4, §5

LKB1 = LKB1 (Homo sapiens, UniProt Q15831); experiment: Protein kinase assay ([γ-32P] ATP), LKB1; conditions: read-out: Activity of the protein kinase when treated with compound I-1 (% control)
LKB1, sequence (Q15831 whole entry): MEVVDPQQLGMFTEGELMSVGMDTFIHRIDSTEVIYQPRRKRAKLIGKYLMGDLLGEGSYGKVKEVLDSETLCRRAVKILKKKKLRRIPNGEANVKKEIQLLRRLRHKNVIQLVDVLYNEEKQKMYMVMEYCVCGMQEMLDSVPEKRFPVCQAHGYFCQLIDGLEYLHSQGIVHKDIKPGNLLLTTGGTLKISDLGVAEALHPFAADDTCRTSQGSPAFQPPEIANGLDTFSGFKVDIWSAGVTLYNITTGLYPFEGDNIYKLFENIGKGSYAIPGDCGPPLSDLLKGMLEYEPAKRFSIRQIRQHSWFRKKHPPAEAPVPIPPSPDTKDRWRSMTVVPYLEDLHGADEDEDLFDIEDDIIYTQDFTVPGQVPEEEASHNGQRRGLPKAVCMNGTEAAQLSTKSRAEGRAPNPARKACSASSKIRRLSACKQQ
LKB1, sequence (Q7RTN6 whole entry partner): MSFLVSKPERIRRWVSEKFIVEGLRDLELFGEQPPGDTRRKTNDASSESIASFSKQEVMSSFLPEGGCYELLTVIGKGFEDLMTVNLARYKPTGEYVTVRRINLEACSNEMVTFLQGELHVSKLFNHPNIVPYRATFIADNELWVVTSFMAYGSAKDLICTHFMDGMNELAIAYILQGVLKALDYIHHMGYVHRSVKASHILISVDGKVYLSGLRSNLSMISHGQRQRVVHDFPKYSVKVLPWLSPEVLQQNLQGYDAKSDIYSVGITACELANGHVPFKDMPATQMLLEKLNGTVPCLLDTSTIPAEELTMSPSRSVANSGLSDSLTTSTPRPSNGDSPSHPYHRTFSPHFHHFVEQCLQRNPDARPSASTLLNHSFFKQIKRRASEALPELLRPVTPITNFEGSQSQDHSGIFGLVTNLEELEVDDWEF
LKB1, sequence (Q9Y376 whole entry partner): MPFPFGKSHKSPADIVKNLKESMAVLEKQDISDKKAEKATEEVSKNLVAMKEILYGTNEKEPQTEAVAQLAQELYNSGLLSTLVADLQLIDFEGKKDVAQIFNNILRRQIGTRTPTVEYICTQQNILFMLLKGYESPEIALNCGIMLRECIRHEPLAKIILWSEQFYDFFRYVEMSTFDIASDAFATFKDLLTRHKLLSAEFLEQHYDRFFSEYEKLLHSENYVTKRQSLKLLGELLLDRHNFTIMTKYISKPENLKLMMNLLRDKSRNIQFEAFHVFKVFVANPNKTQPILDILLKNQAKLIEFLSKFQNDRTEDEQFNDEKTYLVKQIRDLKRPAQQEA
Method: as §1, §2, §3, §4, §5

[1] = 0.1 μM of compound I-1, DMSO control = 100%
[2] = 1 μM of compound I-1, DMSO control = 100%

DYRK2, sequence (Q92630 whole entry): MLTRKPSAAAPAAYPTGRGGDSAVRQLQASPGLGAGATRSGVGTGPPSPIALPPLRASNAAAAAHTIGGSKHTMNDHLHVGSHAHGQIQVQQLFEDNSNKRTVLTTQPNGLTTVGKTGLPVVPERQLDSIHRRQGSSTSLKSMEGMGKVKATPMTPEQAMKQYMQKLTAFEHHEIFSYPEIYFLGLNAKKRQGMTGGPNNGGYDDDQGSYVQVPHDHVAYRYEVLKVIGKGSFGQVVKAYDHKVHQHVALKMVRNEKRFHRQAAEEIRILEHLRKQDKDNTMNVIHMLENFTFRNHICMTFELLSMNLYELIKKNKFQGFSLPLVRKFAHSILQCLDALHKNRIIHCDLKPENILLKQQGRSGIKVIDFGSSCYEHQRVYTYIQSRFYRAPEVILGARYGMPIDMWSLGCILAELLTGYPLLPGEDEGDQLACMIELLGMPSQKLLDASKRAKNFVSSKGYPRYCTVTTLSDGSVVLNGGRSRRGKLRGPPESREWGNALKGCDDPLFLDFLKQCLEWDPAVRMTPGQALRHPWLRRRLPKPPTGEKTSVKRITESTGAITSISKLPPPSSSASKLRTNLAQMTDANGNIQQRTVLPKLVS

`Cc1cccc(C)c1NC(=O)N1C/C=C\COc2cccc(c2)Nc2cc1ncn2` [Compound I-1] showed a remaining activity at 0.1 µM (DYRK2; [1]) of 103%, a remaining activity at 1 µM (DYRK2; [2]) of 76% and a remaining activity at 0.1 µM (TIE2; [1]) of 52%. For the same molecule, the remaining activity at 1 µM (TIE2; [2]) was 10%, the remaining activity at 0.1 µM (EIF2AK3; [1]) was 97% and the remaining activity at 1 µM (EIF2AK3; [2]) was 80%. The remaining activity at 0.1 µM (CDK9-Cyclin T1; [1]) was 116%, the remaining activity at 1 µM (CDK9-Cyclin T1; [2]) was 92% and the “Activity of the protein kinase when treated with compound I-1 (% control)” value (shortened to “Activity of the protein kinase … (% control)”) (PHK; [1]) was 88 % control. For the same molecule, the “Activity of the protein kinase … (% control)” value (PHK; [2]) was 100 % control, the remaining activity at 0.1 µM (TESK1; [1]) was 40% and the remaining activity at 1 µM (TESK1; [2]) was 21%. It also gave a remaining activity at 0.1 µM (p38b MAPK; [1]) of 83%, a remaining activity at 1 µM (p38b MAPK; [2]) of 29% and a remaining activity at 0.1 µM (PIM1; [1]) of 132%. It also gave a remaining activity at 1 µM (PIM1; [2]) of 93%, a remaining activity at 0.1 µM (PAK4; [1]) of 100% and a remaining activity at 1 µM (PAK4; [2]) of 78%. For the same molecule, the “Activity of the protein kinase … (% control)” value (ROCK 2; [1]) was 95 % control, the “Activity of the protein kinase … (% control)” value (ROCK 2; [2]) was 91 % control and the remaining activity at 0.1 µM (RSK1; [1]) was 98%. For the same molecule, the remaining activity at 1 µM (RSK1; [2]) was 99%, the remaining activity at 0.1 µM (MST2; [1]) was 99% and the remaining activity at 1 µM (MST2; [2]) was 98%. For the same molecule, the remaining activity at 0.1 µM (PAK6; [1]) was 101%, the remaining activity at 1 µM (PAK6; [2]) was 78% and the remaining activity at 0.1 µM (SGK1; [1]) was 96%. For the same molecule, the remaining activity at 1 µM (SGK1; [2]) was 100%, the remaining activity at 0.1 µM (ABL; [1]) was 7% and the remaining activity at 1 µM (ABL; [2]) was 2%. The remaining activity at 0.1 µM (BRK; [1]) was 36%, the remaining activity at 1 µM (BRK; [2]) was 12% and the remaining activity at 0.1 µM (LKB1; [1]) was 99%. For the same molecule, the remaining activity at 1 µM (LKB1; [2]) was 65%.
